In PMC5823845 (Bioorganic & Medicinal Chemistry, 2018):
“Also recorded” adds a separate entry of the source.

Key:
[1] = system: Salmonella Typhimurium (TA98, TA100, and TA1535); experiment: Ames test; assay type: cell-based; details: three bacterial strains; presence and absence of S9
From the text: For the first two assays, photometry is used for detection.

hERG channel = target: T1, hERG channel (Homo sapiens, UniProt Q12809); experiment: hERG binding assay, displacement of [3H]-astemizole; details: up to 10 μM
T1 construct: host or cells: HEK293 cells expressing HERG (per the cited method)
Protocol: Interaction with the hERG channel was assessed by displacement of the radioligand [^3H]-astemizole as described by Chiu et al.^3

Solubility in water = assay type: physicochemical; details: as the sodium salt in water at 35 °C
[2] = Stability and intrinsic clearance in cryopreserved hepatocytes; details: dog
Protocol: (§2) Reactions were terminated by addition of 100 μL of acetonitrile containing carbamazepine as the analytical internal standard. Samples were centrifuged and the supernatant fractions analysed by LC-MS/MS. The instrument responses (peak heights) were referenced to the zero time-point samples (as 100%) in order to determine the percentage of compound remaining. Ln plots of the % remaining, for each compound, were used to determine the half-life for the hepatocyte incubations.

[3] = as above; details: human
Protocol: as §2

[4] = Intrinsic clearance in liver microsomes; assay type: in vitro ADME; details: liver microsomes, 37 °C, NADPH, 45 min, mean of 5
Protocol: The reaction is terminated by the addition of methanol. Following centrifugation, the supernatant is analyzed on the LC-MS/MS. […] The data is the mean on 5 separate experiments.
The ln peak area ratio (compound peak area/internal standard peak area) is plotted against time and the gradient of the line determined.
(see Supplementary data file for details).

CHO-K1 cells = experiment: In vitro micronucleus test; assay type: cell-based; details: presence and absence of S9
From the text: Fluorescent imaging was used to obtain the results in the micronucleus test.

PK studies in rats = assay type: in vivo, Sprague-Dawley rats
Protocol: The Test Items were orally administered at a dose of 10 mg/kg and a dosing volume of 10 mL/kg. […] The Test Items were intravenously administered at a dose of 0.5 mg/kg and a dosing volume of 2 mL/kg. […] Whole blood concentrations of the Test Items were measured using LC-MS/MS and selected pharmacokinetic parameters calculated using Pharsight WinNonLin software. For furthers details see Supplementary data file.

[5] = Plasma protein binding, equilibrium dialysis; assay type: in vitro ADME
Protocol: Equilibrium dialysis is used to determine the extent of binding of a compound to plasma proteins. A semi-permeable membrane separates a protein-containing compartment from a protein-free compartment. The system is allowed to equilibrate at 37 °C. The test compound present in each compartment is quantified by LC-MS/MS. The extent of binding is reported as a fraction unbound (fu) value which is calculated as detailed below;
fu = 1 – (PC - PF /PC). PC = Test compound concentration in protein-containing compartment. PF = Test compound concentration in the protein-free compartment.

human RXR α = target: T2, human RXR α (Homo sapiens, UniProt P19793); experiment: Retinoid X Receptor radioligand binding assay, [3H] 9-cis-retinoic acid; details: human recombinant receptor
T2 construct: Panlabs Eurofins Pharma Discovery Services (CRO)
T2 sequence (P19793 1-462): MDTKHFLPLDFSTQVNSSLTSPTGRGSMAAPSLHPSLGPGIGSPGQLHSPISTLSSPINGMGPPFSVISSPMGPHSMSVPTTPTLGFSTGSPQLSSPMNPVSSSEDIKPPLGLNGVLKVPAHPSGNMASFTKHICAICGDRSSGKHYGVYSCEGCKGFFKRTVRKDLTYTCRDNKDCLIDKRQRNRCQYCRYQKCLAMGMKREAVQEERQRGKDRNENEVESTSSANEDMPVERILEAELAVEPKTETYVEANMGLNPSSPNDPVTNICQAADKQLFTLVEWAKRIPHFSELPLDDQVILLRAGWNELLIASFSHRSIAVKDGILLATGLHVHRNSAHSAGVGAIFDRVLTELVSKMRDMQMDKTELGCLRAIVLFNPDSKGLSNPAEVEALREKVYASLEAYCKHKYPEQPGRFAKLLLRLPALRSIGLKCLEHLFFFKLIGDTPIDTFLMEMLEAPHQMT
Protocol: (§1) [22] The Retinoid X Receptor RXRα and RXRβ radioligand binding assays using [^3H] 9-cis-retinoic acid and the respective human recombinant receptors, were carried out by the CRO Panlabs Eurofins Pharma Discovery Services UK Limited, Gemini Crescent, Dundee Technology Park, Dundee, DD2 1SW.

human RXR β = target: T3, human RXR β (Homo sapiens, UniProt P28702); experiment: as above; details: human recombinant receptor
T3 construct: Panlabs Eurofins Pharma Discovery Services (CRO)
T3 sequence (P28702 1-533): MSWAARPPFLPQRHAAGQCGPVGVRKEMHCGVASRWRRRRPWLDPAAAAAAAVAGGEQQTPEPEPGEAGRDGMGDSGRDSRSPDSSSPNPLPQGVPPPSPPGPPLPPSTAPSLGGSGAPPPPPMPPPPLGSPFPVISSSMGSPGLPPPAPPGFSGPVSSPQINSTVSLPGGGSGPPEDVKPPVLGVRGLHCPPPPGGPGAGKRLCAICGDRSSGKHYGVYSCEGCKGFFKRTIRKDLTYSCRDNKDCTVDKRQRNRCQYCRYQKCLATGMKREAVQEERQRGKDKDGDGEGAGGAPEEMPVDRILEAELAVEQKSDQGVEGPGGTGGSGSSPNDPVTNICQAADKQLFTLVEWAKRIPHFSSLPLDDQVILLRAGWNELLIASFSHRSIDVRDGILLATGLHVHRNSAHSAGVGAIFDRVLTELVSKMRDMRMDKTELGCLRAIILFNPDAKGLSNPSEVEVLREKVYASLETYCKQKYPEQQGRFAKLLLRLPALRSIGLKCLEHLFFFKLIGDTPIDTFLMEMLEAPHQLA
Protocol: as §1

[6] = Stability and intrinsic clearance in cryopreserved hepatocytes; details: mouse
Protocol: as §2

[7] = Beagle dogs, n = 3
Protocol: (§3) intravenous (bolus) injection at a dose level of 0.2 mg/kg. […] Intravenous doses were administered by bolus injection into a cephalic vein at a dose volume of 1 mL/kg. Oral doses were administered by gastric intubation at a dose volume of 5 mL/kg. […] Pharmacokinetic parameters were calculated using the computer program Phoenix WinNonlin version 6.3 (Pharsight Corporation, USA).

in vivo [8] = details: male, Beagle, dog, iv, 0.5 mg/kg
Protocol: as §3

in vivo [9] = details: C57, mouse, iv, 1 mg/kg
Protocol: Blood was centrifuged to yield plasma for quantification of parent compound using UPLC-MS/MS. […] Terminal blood samples (approximately 300 μL) were subsequently taken by cardiac puncture under CO2 terminal anaesthesia. Once collected, blood samples were transferred to tubes containing 28 μL of citrate as anti-coagulant and held on ice, for <30 minutes, before centrifugation to generate plasma. Plasma samples aliquots (50 μL) were treated with four volumes of acetonitrile, containing diclofenac as analytical internal standard. Precipitated proteins were removed by centrifugation and the supernatant was analysed by UPLC-MS/MS. Pharmacokinetic parameters were determined by non-compartmental analysis using the software package PK Solutions 2.0 from Summit Research Services.

T1 sequence (Q12809 whole entry): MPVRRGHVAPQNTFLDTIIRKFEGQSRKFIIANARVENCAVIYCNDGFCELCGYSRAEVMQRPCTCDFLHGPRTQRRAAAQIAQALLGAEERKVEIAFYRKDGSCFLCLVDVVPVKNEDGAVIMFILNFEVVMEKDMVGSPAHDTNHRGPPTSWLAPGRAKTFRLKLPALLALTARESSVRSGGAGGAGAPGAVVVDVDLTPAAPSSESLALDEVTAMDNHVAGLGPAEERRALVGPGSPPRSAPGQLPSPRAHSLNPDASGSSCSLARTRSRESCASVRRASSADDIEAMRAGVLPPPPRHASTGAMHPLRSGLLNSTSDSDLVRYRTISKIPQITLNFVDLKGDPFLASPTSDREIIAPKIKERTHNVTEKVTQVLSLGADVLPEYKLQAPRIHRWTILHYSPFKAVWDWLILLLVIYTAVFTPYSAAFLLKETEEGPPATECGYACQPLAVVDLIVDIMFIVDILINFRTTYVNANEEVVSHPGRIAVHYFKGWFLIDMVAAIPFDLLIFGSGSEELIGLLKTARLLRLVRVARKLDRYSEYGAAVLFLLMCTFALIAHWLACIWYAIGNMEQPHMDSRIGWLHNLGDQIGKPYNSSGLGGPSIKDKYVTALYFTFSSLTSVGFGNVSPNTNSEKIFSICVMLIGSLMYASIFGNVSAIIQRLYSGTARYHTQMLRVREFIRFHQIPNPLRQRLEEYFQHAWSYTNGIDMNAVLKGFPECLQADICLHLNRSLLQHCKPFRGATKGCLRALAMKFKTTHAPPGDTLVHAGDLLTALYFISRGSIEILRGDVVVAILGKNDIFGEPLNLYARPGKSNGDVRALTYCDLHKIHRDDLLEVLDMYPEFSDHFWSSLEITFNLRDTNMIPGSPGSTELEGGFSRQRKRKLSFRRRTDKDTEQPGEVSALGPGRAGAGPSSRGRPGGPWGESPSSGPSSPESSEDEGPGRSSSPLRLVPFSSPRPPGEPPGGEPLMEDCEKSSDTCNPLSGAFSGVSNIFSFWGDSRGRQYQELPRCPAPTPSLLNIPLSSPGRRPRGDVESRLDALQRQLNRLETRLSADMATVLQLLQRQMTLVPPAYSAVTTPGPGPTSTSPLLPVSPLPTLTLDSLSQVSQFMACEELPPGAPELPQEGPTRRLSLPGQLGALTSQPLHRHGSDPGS

CCOc1c(Cl)cc(C(=O)Nc2ccc(C(=O)O)c(C)c2)cc1OC(C)C [Compound 56, 4-(3-Chloro-4-ethoxy-5-isopropoxybenzamido)-2-methylbenzoic acid]
Ames test [1]: negative | binding to hERG (hERG channel): did not show any significant binding; also recorded: no inhibition | solubility (Solubility in water): > 5000 µg/mL | half-life at 1 μM [2]: > 7.5 h | half-life at 30 μM [2]: > 7.5 h | hepatocyte CLint at 1 μM [2]: < 3 µL/min/1e6 cells | hepatocyte CLint at 30 μM [2]: < 3 µL/min/1e6 cells | half-life at 1 μM [3]: > 7.5 h | half-life at 30 μM [3]: > 7.5 h | hepatocyte CLint at 1 μM [3]: < 3 µL/min/1e6 cells | hepatocyte CLint at 30 μM [3]: < 3 µL/min/1e6 cells | microsomal CLint ([4]; human microsomes): 5.3 µL/min/mg | microsomal CLint ([4]; mouse microsomes): 37.6 µL/min/mg | in vitro micronucleus test (CHO-K1 cells): negative | rat pK AUC po (PK studies in rats; 10 mg/kg po, 8% Ethanol/92% PEG-400, n = 4): 70,765 ng·min mL^−1 | rat pK Cl (PK studies in rats; iv 0.5 mg/kg, n = 4): 7 mL/kg/min | bioavailability (PK studies in rats; male, Sprague-Dawley, whole blood, rat, 10 mg/kg po vs 0.5 mg/kg iv, n = 4, read-out: rat pK F%): 40% | fraction unbound ([5]; human): 0.07 | fraction unbound ([5]; mouse): 0.09 | IC50 (human RXR α): > 10 µM | IC50 (human RXR β): > 10 µM | half-life at 1 μM [6]: 3.73 h | half-life at 30 μM [6]: > 5 h | hepatocyte CLint at 1 μM [6]: 12 µL/min/1e6 cells | hepatocyte CLint at 30 μM [6]: < 9 µL/min/1e6 cells | po F ([7]; 0.5 mg/kg iv, 1 mg/kg po): 83% | iv t1/2 ([7]; 0.5 mg/kg iv): 9.2 h | po Cmax ([7]; 1 mg/kg po): 2050 ng/mL | po Tmax ([7]; 1 mg/kg po): 0.5 h | Vd (in vivo [8]): 0.66 L/kg | clearance (in vivo [8]): 2.3 mL/min/kg | Vd (in vivo [9]): 0.3 L/kg | clearance (in vivo [9]): 4.7 mL/min/kg
